Measured values published in patent US9872861B2, “Methods of treatment using selective Bcl-2 inhibitors” (AbbVie Inc., priority 2010, dated 2018).
Like-named read-outs stand apart in the source and are kept apart here. Marks after values point to notes of the source that are not given here.

Experiments:
Bcl-2 = Bcl-2 (Homo sapiens, UniProt P10415); test: TR FRET competitive binding affinity, Bcl-2; conditions: read-out: Target Affinity TR FRET, Bcl-2
Protocol: (§1) A comparison of the binding affinity for each of the compounds was performed to determine target affinity, as measured by Time-Resolved Fluorescence Resonance Energy Transfer (TR FRET).

Bcl-XL = Bcl-XL (Homo sapiens, UniProt Q07817); test: TR FRET competitive binding affinity, Bcl-XL; conditions: read-out: Target Affinity TR FRET, Bcl-XL
Chain of Bcl-XL (Q07817 whole entry): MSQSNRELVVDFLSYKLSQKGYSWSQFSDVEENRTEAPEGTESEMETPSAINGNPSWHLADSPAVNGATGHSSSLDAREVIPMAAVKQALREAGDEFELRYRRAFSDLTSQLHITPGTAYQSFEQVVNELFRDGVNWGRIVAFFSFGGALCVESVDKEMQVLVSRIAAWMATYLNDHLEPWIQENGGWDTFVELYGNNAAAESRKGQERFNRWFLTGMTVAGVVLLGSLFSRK
Protocol: as §1

Bcl-w = target: T1, Bcl-w (Homo sapiens, UniProt Q92843); test: TR FRET competitive binding affinity, Bcl-w; conditions: read-out: Target Affinity TR FRET, Bcl-w
T1 sequence (Q92843 1-193): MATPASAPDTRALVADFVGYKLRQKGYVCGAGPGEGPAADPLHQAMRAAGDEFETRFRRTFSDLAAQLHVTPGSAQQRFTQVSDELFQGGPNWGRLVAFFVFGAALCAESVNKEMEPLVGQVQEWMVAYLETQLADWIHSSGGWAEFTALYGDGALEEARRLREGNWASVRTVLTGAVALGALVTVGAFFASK
Protocol: as §1

Mcl-1 = Mcl-1 (Homo sapiens, UniProt Q07820); test: TR FRET competitive binding affinity, Mcl-1; conditions: read-out: Target Affinity TR FRET, Mcl-1
Chain of Mcl-1 (Q07820 whole entry): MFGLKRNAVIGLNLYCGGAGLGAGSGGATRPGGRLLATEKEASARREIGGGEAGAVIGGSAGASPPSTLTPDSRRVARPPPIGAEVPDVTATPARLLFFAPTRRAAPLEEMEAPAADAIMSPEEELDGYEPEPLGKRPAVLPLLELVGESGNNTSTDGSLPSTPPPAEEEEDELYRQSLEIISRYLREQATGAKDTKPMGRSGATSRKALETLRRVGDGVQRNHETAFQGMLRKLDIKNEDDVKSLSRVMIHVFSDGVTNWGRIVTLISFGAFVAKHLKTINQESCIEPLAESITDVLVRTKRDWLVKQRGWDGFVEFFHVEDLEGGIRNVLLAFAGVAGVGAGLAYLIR
Protocol: as §1

FL5.12-Bcl-2 cells = test: Cellular efficacy in FL5.12 cells dependent on Bcl-2; type: cell-based, murine; conditions: Mus musculus, 3% FBS
FL5.12-Bcl-XL cells = test: Cellular efficacy in FL5.12 cells dependent on Bcl-XL; type: cell-based, murine; conditions: Mus musculus, 3% FBS
RS4;11 cells = test: Cellular efficacy in Bcl-2 dependent tumor cell line RS4;11; type: cell-based, human; conditions: Homo sapiens, RS4-11; 10% HS
H146 cells = test: Cellular efficacy in Bcl-XL dependent tumor cell line H146; type: cell-based; conditions: Homo sapiens, NCI-H146; 10% HS
[1] = test system: peripheral blood immune cells; test: Peripheral blood lymphocytes in C57BL/6 mice, Cell Dyn hematology analyzer; type: in vivo; conditions: for inhibition in vivo at 100 mg/kg: Mus musculus, Lymphocyte
Protocol: The effect of the Bcl-2 selective/Bcl-XL sparing compounds on peripheral blood immune cells was also evaluated in C57BL/6 mice. Mice were treated four days with individual compounds (100 mg/kg, orally every day) and cell numbers were measured with a Cell Dyn hematology analyzer.

[2] = test system: spontaneous (NZB×NZW)F1 murine model of lupus; test: Spontaneous (NZB×NZW)F1 murine model of lupus: proteinuria, survival, lymphopenia; type: in vivo, (NZB×NZW)F1 mice
From the text: (See Liu, K. and C. Mohan, What do mouse models teach us about human SLE? Clin Immunol, 2006. 119(2): p. 123-30) This model has been well-characterized with respect to the patho-physiological changes analogous to those of human SLE. […] Renal histopathological changes include severe glomerulonephritis, mesangial and peripheral proliferative changes, capillary membrane thickening, tubular atrophy, and infiltration of lymphocytes and monocytes/macrophages as in the majority of human SLE patients. These changes result in disruption of kidney function as evidenced by severe proteinuria (PU) greater than 300 mg/dL as measured by albumin sticks, followed by mortality as measured by survival. […] (See Gelfand, M. C. and A. D. Steinberg, Therapeutic studies in NZB-W mice. II. Relative efficacy of azathioprine, cyclophosphamide and methylprednisolone. Arthritis Rheum, 1972. 15(3): p. 247-52; and Ramos, M. A., et al., Modulation of autoantibody production by mycophenolate mofetil: effects on the development of SLE in (NZB×NZW)F1 mice. Nephrol Dial Transplant, 2003. 18(5): p. 878-83)
(NZB×NZW)F1 females were purchased from The Jackson Laboratory (Bar Harbor, Me., USA) and maintained in a conventional animal housing facility throughout the experiment. […] Proteinuria (PU) and survival were monitored weekly, followed by biweekly measurement of lymphocyte and platelet counts, and anti-ds DNA production. PK parameters were also measured throughout the study. Impact on IgG deposition and renal pathology were assessed at the conclusion of the study. Severe PU was defined by two consecutive weekly measurements of PU 300 mg/dl using Albustix test strips (VWR). When mice became moribund, they were sacrificed according to Institutional Animal Care and Use Committee protocols. PU and survival data were presented as Kaplan-Meyer survival curves using Graphpad Prism software and group differences were considered significant at the level of p<0.05. Histologic scores were analyzed using ANOVA analysis. Anti-ds DNA were analyzed using one-way ANOVA analysis and Tukey post-test.

Chain of Bcl-2 (P10415 whole entry): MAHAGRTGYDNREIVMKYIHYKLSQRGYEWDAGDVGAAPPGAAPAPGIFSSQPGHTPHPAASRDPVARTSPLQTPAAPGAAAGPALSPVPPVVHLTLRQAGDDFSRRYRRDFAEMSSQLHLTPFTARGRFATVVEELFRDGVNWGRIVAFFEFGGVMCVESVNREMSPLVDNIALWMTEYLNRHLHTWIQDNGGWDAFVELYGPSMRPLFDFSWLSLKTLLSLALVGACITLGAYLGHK

CC1(C)CCC(CN2CCN(c3ccc(C(=O)NS(=O)(=O)c4ccc(N[C@H]5CC[C@H](N6CCOCC6)CC5)c([N+](=O)[O-])c4)c(Oc4cnc(N)c(Cl)c4)c3)CC2)=C(c2ccc(Cl)cc2)C1 [Compound 17, Trans-2-[(6-amino-5-chloropyridin-3-yl)oxy]-4-(4-{[2-(4-chlorophenyl)-4,4-dimethylcyclohex-1-en-1-yl]methyl}piperazin-1-yl)-N-({4-[(4-morpholin-4-ylcyclohexyl)amino]-3-nitrophenyl}sulfonyl)benzamide]
Ki (Bcl-2): < 0.01 nM | Ki (Bcl-XL): 12 nM | Ki (Bcl-w): 357 nM | Ki (Mcl-1): > 440 nM | EC50 (FL5.12-Bcl-2 cells): 4 nM | EC50 (FL5.12-Bcl-XL cells): 65 nM | EC50 (RS4;11 cells): 17 nM | EC50 (H146 cells): 3.24 µM | Day 1 Lymphocytes ([1]; 1 oral dose of 100 mg/kg): 1.84 ×10^6 | Day 4 lymphocytes ([1]; 4 oral doses of 100 mg/kg): 1.30 ×10^6 | inhibition in vivo at 100 mg/kg ([1]; 24 h, 1 oral dose of 100 mg/kg, read-out: Day 1 % Reduction vs. Vehicle): 77% | inhibition in vivo at 100 mg/kg ([1]; 96 h, 4 oral doses of 100 mg/kg, read-out: Day 4 % Reduction vs. Vehicle): 83% | % Mice with PU < 300 mg/dL ([2]; Week 39, 1 mg/kg daily oral): 58% | % Survival ([2]; Week 39, 1 mg/kg daily oral): 67% | % Mice with PU < 300 mg/dL ([2]; Week 39, 3 mg/kg daily oral): 67% | % Survival ([2]; Week 39, 3 mg/kg daily oral): 92% | % Mice with PU < 300 mg/dL ([2]; Week 39, 10 mg/kg daily oral): 71% | % Survival ([2]; Week 39, 10 mg/kg daily oral): 93% | % Mice with PU < 300 mg/dL ([2]; Week 39, 30 mg/kg daily oral): 86% | % Survival ([2]; Week 39, 30 mg/kg daily oral): 100% | % Mice with PU < 300 mg/dL ([2]; Week 39, 100 mg/kg daily oral): 100* % | % Survival ([2]; Week 39, 100 mg/kg daily oral): 100%
